Experimental data reported in PubChem BioAssay AID743254 (The Scripps Research Institute Molecular Screening Center, 2014).
Active and inactive are the calls of the source.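 The calls were made as follows: active = half-inhibition concentration IC50 of 10 µM or lower; inactive = IC50 above 10 µM.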

What follows are molecules tested against Disintegrin and metalloproteinase domain-containing protein 10 (Homo sapiens) (UniProt O14672) (assay: ADAM10 inhibitors, peptide cleavage, dose response, biochemical, QFRET (AID 743254)). Conditions: EDANS fluorescence, 3 h.
Chain of Disintegrin and metalloproteinase domain-containing protein 10 (Homo sapiens) (O14672 214-748 limits assumed): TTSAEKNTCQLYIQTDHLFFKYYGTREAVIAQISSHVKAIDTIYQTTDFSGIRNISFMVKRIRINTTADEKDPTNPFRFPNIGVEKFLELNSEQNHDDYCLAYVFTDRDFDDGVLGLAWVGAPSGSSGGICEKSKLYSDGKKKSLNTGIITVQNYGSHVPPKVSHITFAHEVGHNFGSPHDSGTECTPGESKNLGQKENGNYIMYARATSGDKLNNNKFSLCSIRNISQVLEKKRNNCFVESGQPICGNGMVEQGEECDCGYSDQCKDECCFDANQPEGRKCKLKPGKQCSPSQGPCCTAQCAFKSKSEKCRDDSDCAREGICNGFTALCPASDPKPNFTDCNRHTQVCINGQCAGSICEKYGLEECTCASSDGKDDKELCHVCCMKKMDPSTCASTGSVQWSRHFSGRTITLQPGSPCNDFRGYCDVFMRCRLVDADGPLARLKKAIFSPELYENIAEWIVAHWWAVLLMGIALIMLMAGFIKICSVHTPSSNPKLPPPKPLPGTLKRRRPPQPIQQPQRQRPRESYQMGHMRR

IC50, inactive:
O=C1OCCN1C(=O)[C@H]1[C@H](c2ccc([N+](=O)[O-])cc2)C(c2ccc(F)cc2)=NN1c1ccc(Br)cc1
O=[N+]([O-])c1ccc(S(=O)(=O)Nc2ccc(-c3csc(-c4ccccc4)n3)cc2)cc1
O=C(NNC(=O)c1cc(-c2ccccc2)nc2ccccc12)Nc1cccc(Cl)c1 > 69.5 µM
O=C(OCc1csc(Nc2ccccc2)n1)c1ccc(Cl)cc1
Fc1c(F)c(C(F)(F)F)c(F)c(F)c1N/N=C\c1cccs1 > 69.5 µM
CCOC(=O)c1c(CSc2ccc(C)cc2)oc2ccc(O)cc12
O=[N+]([O-])c1ccc(-c2nc(-c3cccs3)c(-c3cccs3)[nH]2)cc1 > 69.5 µM
Oc1ccc(Cl)cc1-c1cc(-c2cccc(Br)c2)n[nH]1 > 69.5 µM
COc1cc(/C=N/O)cc(Br)c1OCc1ccc(Cl)cc1 > 69.5 µM
N#Cc1c(Cl)nc(N/N=C/c2ccccc2)c(Cl)c1Cl > 69.5 µM
O=[N+]([O-])c1ccc(O)c(/C=N/Nc2ccccn2)c1
O=[N+]([O-])c1cc(S(=O)(=O)Nc2ccccc2)ccc1N1CCN(c2ccccc2)CC1
COc1ccc(S(=O)(=O)Nc2cc3c4c(oc3c3ccccc23)CC(C)(C)CC4=O)cc1 > 69.5 µM
O=C(Nc1cccc(S(=O)(=O)Nc2ccc(Cl)cc2)c1)c1cc2c(s1)CCCC2 > 69.5 µM
O=C(Nc1ccc(N2CCCC2)c(S(=O)(=O)Nc2cccc(C(F)(F)F)c2)c1)c1cccs1 > 69.5 µM
O=C(NNC(=O)c1cc(-c2ccc(Cl)cc2)nc2ccccc12)c1csc(N2CCOCC2)n1 > 69.5 µM
O=C1OCCN1C(=O)[C@H]1[C@H](c2ccc([N+](=O)[O-])cc2)C(c2cccc(Cl)c2)=NN1c1ccc(Br)cc1
Cc1cccc(C)c1OCC(O)Cn1c2ccccc2c2ccccc21 (stereo not given) > 69.5 µM
Cc1ccc(NS(=O)(=O)c2ccc(Cl)c(NC(=S)NC(=O)C3CCCCC3)c2)cc1Cl
CCc1ccc(NC(=O)c2ccc(F)c(S(=O)(=O)NCC3COc4ccccc4O3)c2)cc1 (stereo not given)
COc1ccc(CCN2C(=O)c3[nH]nc(-c4ccccc4O)c3C2c2cccc(Cl)c2)cc1 (stereo not given)
O=C1CC(N(CCc2ccccc2)C(=S)Nc2cc(Cl)ccc2Cl)C(=O)N1c1c(Cl)cccc1Cl (stereo not given) > 69.5 µM
COC(=O)c1ccc(N2CCC(c3cc(-c4ccc(OC)cc4)n[nH]3)CC2)c([N+](=O)[O-])c1 > 69.5 µM
CCCN(CC(=O)Nc1cc(Cl)cc(Cl)c1)CC(=O)Nc1ccc(F)c(F)c1F
C(=C\c1ccccc1)/C=N/Nc1nc2ccccc2s1 > 69.5 µM
Cc1cc(C)c(CSc2ncc(-c3ccc([N+](=O)[O-])cc3)[nH]2)c(C)c1
COc1ccc(-c2ccc(-c3noc(-c4cccc(OC)c4)n3)c(OC)n2)cc1 > 69.5 µM
O=C(NNc1ccccc1Br)C(O)(c1cccc(C(F)(F)F)c1)c1cccc(C(F)(F)F)c1
CC(=O)c1ccc(N2CCC(c3cc(-c4ccc(Cl)cc4Cl)n[nH]3)CC2)c([N+](=O)[O-])c1

IC50, active:
C=C(C)COc1ccc(-c2[nH]ncc2Oc2cccc(OC)c2)c(O)c1 7.45 µM
O=C(Nc1ccc(OCC(F)(F)C(F)F)c(C(F)(F)F)c1)c1ccc(Cl)cc1 7.43 µM
COc1ccc(-c2cn[nH]c2-c2ccc(OCc3ccccc3)cc2O)cc1 9.61 µM
C=C(C)COc1ccc(-c2[nH]ncc2Oc2ccc(OC)cc2)c(O)c1 5.44 µM
O=[N+]([O-])c1cccnc1N1CCC(c2cc(-c3ccc(Cl)cc3)n[nH]2)CC1 8.8 µM
COc1ccc(C(Nc2cc(C)ccn2)c2ccc3ccc(C)nc3c2O)cc1 (stereo not given) 7.23 µM
